Laboratory results: the CheMixHub ionic liquid set

Assay: xn = mol fraction of the nth substance listed
Settings: for electrical conductivity: 101 kPa, frequency 2 MHz; for viscosity: 100 kPa

O=S(=O)([O-])C(F)(F)F.[Li+] + O=S(=O)([N-]S(=O)(=O)C(F)(F)F)C(F)(F)F.[Li+] + O
Settings	electrical conductivity, 298.1 K [S/m]	electrical conductivity, 303 K [S/m]	electrical conductivity, 308.1 K [S/m]	electrical conductivity, 313 K [S/m]	viscosity, 298.15 K [mPa·s]	viscosity, 308.15 K [mPa·s]
x1 = 0.04029, x2 = 0.1114	–	–	–	–	7.5	5.6
x1 = 0.07222, x2 = 0.1893	–	–	–	–	29.1	20.6
x1 = 0.09226, x2 = 0.2336	–	–	–	–	69	45.7
x1 = 0.1024, x2 = 0.2553	–	–	–	–	98	63
x1 = 0.1122, x2 = 0	–	–	–	–	3.7	2.9
x1 = 0.1122, x2 = 0.2745	–	–	–	–	152	94.6
x1 = 0.1783, x2 = 0	–	–	–	–	9.2	6.9
x1 = 0.2388, x2 = 0	–	–	–	–	21.9	16
x1 = 0.2541, x2 = 0	–	–	–	–	31.8	22.6
x1 = 0.2743, x2 = 0	–	–	–	–	47.2	32.9
x2 = 0.001799, x1 = 0.0005943	–	0.867	0.961	1.06	–	–
x2 = 0.005377, x1 = 0.001799	–	2.117	2.36	2.61	–	–
x2 = 0.00893, x1 = 0.003054	2.76	3.1	3.46	3.835	–	–
x2 = 0.01246, x1 = 0.004127	3.46	3.9	4.36	4.834	–	–
x2 = 0.01596, x1 = 0.005377	4.045	4.56	5.1	5.66	–	–
x2 = 0.01944, x1 = 0.006623	4.522	5.1	5.702	6.331	–	–
x2 = 0.05129, x1 = 0.0177	6.08	6.85	7.67	8.518	–	–
x2 = 0.08265, x1 = 0.02921	5.326	6.011	6.732	7.48	–	–
x2 = 0.112, x1 = 0.04029	4.123	4.67	5.239	5.838	–	–
x2 = 0.1395, x1 = 0.05129	3.035	3.45	3.89	4.36	–	–
x2 = 0.1654, x1 = 0.06203	2.18	2.5	2.839	3.201	–	–
x2 = 0.1898, x1 = 0.07238	1.55	1.79	2.05	2.334	–	–
x2 = 0.2128, x1 = 0.08265	1.09	1.28	1.48	1.7	–	–
x2 = 0.2345, x1 = 0.0927	0.768	0.908	1.06	1.234	–	–
x2 = 0.2551, x1 = 0.1024	0.537	0.643	0.763	0.895	–	–
x2 = 0.2745, x1 = 0.112	0.374	0.454	0.545	0.647	–	–
